Where two headings read alike, the source gives them in different places.
Experiments:
MRSA = test system: MRSA; set-up: method as in 2 sources, one per row (each row's own in cited_ref): ref Giachetto et al. ([32]) ||| ref Frymoyer et al. ([33]); conditions: vancomycin 39.92mg·kg-1·d-1; MRSA strains with MIC 1 mg·L-1; ref Giachetto et al. ([32]); cited from earlier work
[1] = 1,000 bootstrap-resampled data sets
[2] = cited from earlier work
From the text: In this study, the data of 155 children (aged from 1 month to 16 years) infected with MRS were used to establish a PPK model suitable for Chinese children. And then the PK parameters were obtained by Bayesian method. […] But the value of CL is faster than that reported by Marques-Minana et al.([23]) (0.066 L· ...

[3] = Individual pharmacokinetic parameters by renal function subgroup, post hoc empirical Bayesian approach; conditions: Total, N=155, mean ± SD
Description: After fixing the PK parameters and variation in the final model, the PK parameters for individuals in three groups of different renal function were obtained by using post hoc empirical Bayesian approach. The mean values and standard deviation of the parameters in different groups were calculated.

[4] = Japanese pediatric patients, ref Yasuhara et al.([17])
[5] = pediatric patients, ref Wrishko et al.(16)

**Q.** With `CN[C@H](CC(C)C)C(=O)N[C@H]1C(=O)N[C@@H](CC(N)=O)C(=O)N[C@H]2C(=O)N[C@H]3C(=O)N[C@H](C(=O)N[C@H](C(=O)O)c4cc(O)cc(O)c4-c4cc3ccc4O)[C@H](O)c3ccc(c(Cl)c3)Oc3cc2cc(c3O[C@@H]2O[C@H](CO)[C@@H](O)[C@H](O)[C@H]2O[C@H]2C[C@](C)(N)[C@H](O)[C@H](C)O2)Oc2ccc(cc2Cl)[C@H]1O` [vancomycin, Vancomycin] as the compound, how does the “probability of AUC0-24h/MIC ≥ 400” value (MRSA) read?
**A.** 50%

**Q.** And the “Exponent for Weight as covariate for CL, bootstrap median” value [1]?
**A.** 0.852

**Q.** What about the “Exponent for Weight as covariate for Vd, bootstrap median” value [1] of the same compound?
**A.** 1.018

**Q.** And the “Exponent for lnGFR as covariate for CL, bootstrap median” value [1]?
**A.** 2.378

**Q.** And the “θVd (typical value for Weight=9 kg), bootstrap median” value [1]?
**A.** 5.39 L

**Q.** What about the CL [2, 4] of the same compound?
**A.** 1.98 mL/min/kg

**Q.** What about the Vd [2, 4] of the same compound?
**A.** 0.522 L/kg

**Q.** What about the CL ([2]; neonates, ref Marques-Minana et al.([23])) of the same compound?
**A.** 1.1 mL/min/kg

**Q.** And the CL [2, 5]?
**A.** 2 mL/min/kg

**Q.** What about the Vd [2, 5] of the same compound?
**A.** 0.57 L/kg

**Q.** What about the CL [3] of the same compound?
**A.** 2.22 ± 1.1 mL/min/kg

**Q.** What about the Vd [3] of the same compound?
**A.** 0.65 ± 0.30 L/kg

**Q.** And the ke [3]?
**A.** 0.218 ± 0.091 h⁻¹
